Results taken from US10053485B2, “Cytotoxic agents that preferentially target leukemia inhibitory factor (LIF) for the treatment of malignancies and as new contraceptive agents” (Evestra, Inc., priority 2015, dated 2018).

How the values were obtained:
Assay type in all cases: cell-based
OVCAR-3 = assay: NCI-60 screen, Ovarian Cancer panel; details: Homo sapiens, OVCAR-3, 48 h
Experimental: EC 330 was also tested using the NCI-60 Screening Methodology. The human tumor cell lines of the cancer screening panel are grown in RPMI 1640 medium containing 5% fetal bovine serum and 2 mM L-glutamine. For a typical screening experiment, cells are inoculated into 96 well microtiter plates in 100 μL at plating densities ranging from 5,000 to 40,000 cells/well depending on the doubling time of individual cell lines. After cell inoculation, the microtiter plates are incubated at 37° C., 5% CO2, 95% air and 100% relative humidity for 24 h prior to addition of experimental drugs. […]
Following drug addition, the plates are incubated for an additional 48 h at 37° C., 5% CO2, 95% air, and 100% relative humidity. […] Bound stain is subsequently solubilized with 10 mM trizma base, and the absorbance is read on an automated plate reader at a wavelength of 515 nm. […] Using the seven absorbance measurements [time zero, (Tz), control growth, (C), and test growth in the presence of drug at the five concentration levels (Ti)], the percentage growth is calculated at each of the drug concentrations levels. Percentage growth inhibition is calculated as: [(Ti−Tz)/(C−Tz)]×100 for concentrations for which Ti>/=Tz [(Ti−Tz)/Tz]×100 for concentrations for which Ti<Tz.
Three dose response parameters are calculated for each experimental agent. […]

[1] = test system: human endometrial stromal cells (HESC); assay: Decidualization assay, actin cytoskeleton by phalloidin staining; details: FIG. 3
Experimental: Decidualization studies: The above compounds were investigated originally for the treatment of endometriosis. The compounds were tested in a decidualization assay using human endometrial stromal fibroblast (HESC) cells. In preparation for the possibility of embryonic attachment, the stromal cells in the endometrium undergo extensive waves of proliferation, remodeling, and terminal differentiation that transforms the endometrium into an endocrine gland, called decidua. This transformation is called decidualization and it is under the control by ovarian hormones.
The level of apoptosis increases from the proliferative phase through menstrual cycle and peaks at menses. […] However if the cells are subjected to conditions that induce decidualization, stromal cells will begin to differentiate instead of undergoing apoptosis.
Briefly, human stromal endometrial cells were plated in the presence and absence of progesterone and allow undergoing decidualization. The cells treated with test compounds of different concentrations and stained for actin cytocketal morphology using phalloidin staining and monitored under fluorescent microscope.

SW-620 = assay: NCI-60 screen, Colon Cancer panel; details: Homo sapiens, SW-620, 48 h
HS 578T = assay: NCI-60 screen, Breast Cancer panel; details: Homo sapiens, 48 h
[2] = test system: PC3 (AR− Prostate Cancer); assay: Short term (72 h) cytotoxicity assay; details: Homo sapiens, PC3, 72 h cytotoxicity
SF-539 = assay: NCI-60 screen, CNS Cancer panel; details: Homo sapiens, SF-539, 48 h
NCI-H226 = assay: NCI-60 screen, Non-Small Cell Lung Cancer panel; details: Homo sapiens, NCI-H226, 48 h, read-out: GI50 (log10GI50) (converted)
LNCaP (AR+ Prostate) = assay: Short term (72 h) cytotoxicity assay
SF-268 = assay: NCI-60 screen, CNS Cancer panel; details: Homo sapiens, SF-268, 48 h
[3] = read-out: LC50 (log10LC50) (converted)
[4] = read-out: GI50 (log10GI50) (converted)

## C#CC(F)(F)[C@]1(O)CCC2C3CCC4=CC(=O)CCC4=C3C(c3ccc(C4CC4)cc3)C[C@@]21C (stereo partly drawn) [EC330, 17α-(1,1-difluoro-2-propyn-1-yl)-17β-hydroxy-11β-[4-p-(cyclopropyl)phenyl]estra-4,9-dien-3-one]
OVCAR-3; [3]
  CC50: 0.933 µM
OVCAR-3; SRB, read-out: GI50 (log10GI50) (converted)
  GI50: 0.0129 µM
[1]
  actin / alpha-smooth muscle mediated cytoskeletal disruption of fibroblast: cytoskeletal disruption
SW-620; [4]
  GI50: 2.51 µM
SW-620; [3]
  CC50: > 100 µM
HS 578T; [4]
  GI50: 2.29 µM
HS 578T; [3]
  CC50: > 100 µM
[2]
  IC50: 0.03 µM
SF-539; [4]
  GI50: < 0.01 µM
SF-539; [3]
  CC50: 0.0525 µM
NCI-H226
  GI50: 2.63 µM
LNCaP (AR+ Prostate)
  IC50: 0.053 µM
SF-268; [4]
  GI50: 0.126 µM
SF-268; [3]
  CC50: 1.55 µM
